Reference: paper PMC8179002, “Inhibitors of thiol-mediated uptake” (Chemical Science, 2020)
Like-named read-outs stand apart in the source and are kept apart here.

Columns and labels:
[1] = Relative cell viability in HCHT screening (propidium iodide negative nuclei count); assay type: cell-based; conditions: human; for GI50: HeLa, removal, tinc 0.5 h with 1 (10 µM), read-out: GI50, concentration causing 50% cell growth inhibition
Description: (§1) With COCs 1 and 2 as cell-penetrating reporters, a fully automated, fluorescent microscopy image-based high-content high-throughput (HCHT)[19] inhibitor screening assay was developed. HeLa cells in multiwell plates are incubated with a reporter at constant and inhibitors at varying concentrations and incubation times. Hindered reporter uptake then causes decrease of fluorescence inside of cells (Fig. 3a). Automated data analysis[19] was established to extract average fluorescence intensity per cell and, at the same time, cell viability from propidium iodide negative nuclei count (Fig. 3 and S3–S6 ^†). Standard assay conditions consisted of pre-incubation of HeLa cells with inhibitors for different periods of time, followed by the removal of inhibitors and the addition of reporters, thus excluding possible interactions between the two in the extracellular environment. In alternative co-incubation conditions, inhibitors were not removed before the addition of reporters to allow for eventual interactions between the two.
To be able to extract the fluorescent integrated intensity information (sum of the intensities of all the pixels included in the mask) from the green channel for live cell only, the image analysis pipeline contains several steps of cell filtering and selection:
1) Firstly, PI is used to stain any remaining nuclei of dead cell. In the analysis pipeline, all the “dead” nuclei are detected based on their fluorescent intensity in the PI channel (Figure […]
Fig. S4 (A) PI positive nuclei mask (fluorescent intensity threshold of 1000). (B) Overlap image of dead nuclei mask and original all cell body mask. (C) Resulting cell mask after removing any cell marked by a dead nucleus, new mask is called “Live Cell”. Scale bar: 50 μm.
2) Elimination of non-full cells from the border of the image is performed, to avoid inaccurate fluorescent integrated intensity quantification (fluorescent integrated intensity = sum of intensity of all the pixel of the object) (Figure S5).
(1 picture or pasted object on this page, not shown here)
4.3. HCHT Inhibitor Screening with ETP as Reporter […]
(§2) Relative cell viability (RV) for each condition in the presence of inhibitors were calculated using the count value of living cells by dividing the count value of living cells with addition of reporter 1, Hoechst 33342 and PI, for each set of experiments. Duplicates were performed for each condition. The resulting dependence of the relative cell viability (RVrel) to the concentration of inhibitors (cinhibitor) was plotted and fitted with Equation (S2) to retrieve the concentration causing 50% cell growth inhibition (GI50) value and the Hill coefficient (n).
RVrel = 1 / (1 + (GI50 / cinhibitor)n) (S2)
Note: Reporter 1 were not toxic for 1 h at 10 μM.S2 Also in this study, the count value of living cells with addition of reporter 1, Hoechst 33342 and PI is always similar to that of living cells with only addition of Hoechst 33342 and PI.
as §2, with “with” for “in the presence of”, “2,” for “1,”
Note: Reporter 2 were not toxic for 24 h at 10 μM.S3 Also in this study, the count value of living cells with addition of reporter 2, Hoechst 33342 and PI is always similar to that of living cells with only addition of Hoechst 33342 and PI.
4.4.1. Screening with Disulfides as Inhibitors
4.4.1.1. Screening with ETP as Inhibitors
Fig. S35 Automatically analyzed HCHT data showing fluorescence intensity (filled symbols) and relative viability (empty symbols) of HeLa cells after pre-incubation with 3 for 1 h (blue […]

[2] = system: cellular uptake of 1 in HeLa Kyoto cells; test: cells; assay type: cell-based; conditions: HeLa; for minimal effective concentration / IC50: HeLa Kyoto, removal, tinc 0.5 h with 1 (10 µM); for minimal effective concentration: read-out: MIC, inhibition of cellular uptake of 1; for IC50: read-out: IC50, inhibition of cellular uptake of 1; for MIC (concentration that causes ∼15% reduction of reporter uptake), against reporter 1: pre-incubation time not given (Fig. 2: 1 h pre-incubation, 30 min with reporter; some 15 min)
Description: as §1
4. High-Content High-Throughput (HCHT) Inhibitor Screening
4.1. General Procedure for HCHT Inhibitor Screening
4.1.1. Pre-Incubation of Inhibitors
HeLa Kyoto cells were seeded at 1.2 ×10^4 cells/well in FluoroBrite DMEM + 10% FBS on μ-Plate 96-well Black ibiTreat sterile and kept at 37 °C with 5% CO2 overnight. Next day, serial dilutions of the inhibitors in PBS (10x final concentration), reporter 1 or 2 (100 μM in PBS) and a solution of Hoechst 33342 (100 μg/mL) and PI (10 μg/mL) in PBS were prepared freshly in a 96-well V-bottom plate. Then, cells were washed with PBS ([…]) and the media was exchanged to FluoroBrite DMEM (4 x 150 μL/well) using a plate washer (Biotek EL406®), keeping always a final volume of 135 μL/well. The inhibitor solutions from the V-bottom plate were added to the cells (15 μL/well, 10x final concentration in PBS) using an electronic multichannel pipettes to reach a final volume of 150 μL/well. Cells were incubated for the time of interest (for details of each inhibitors, see Section 4.3 and 4.4) at 37 °C with 5%
CO2. After this, cells were washed again using the plate washer and reporter solution 1 or 2 from the V-bottom plate was added (15 μL/well) using an electronic multichannel pipettes to reach a final volume of 150 μL/well and a final concentration of 10 μM, except for the control wells, where only PBS was added (15 μL/well). After 30 min of incubation at 37 °C with 5% CO2, the plate was washed again using the plate washer. Then, the solution of Hoechst 33342 and PI from V-bottom plate was added (15 μL/well) using an electronic multichannel pipettes to reach a final volume of 150 μL/well. After 15 min of incubation at 37 °C with 5% CO2, the plate was washed one last time and the cells were kept in clean FluoroBrite DMEM. During imaging, samples were kept at 37 °C with 5% CO2 in the microscope.
4.1.2. Co-Incubation of Inhibitors and Reporters […]
serial dilutions of the inhibitors in PBS (10x final concentration), reporter 1 or 2 (110 μM in […]
freshly in a 96-well V-bottom plate. Then, cells were washed with the plate washer. The inhibitor solutions from the V-bottom plate were added to the cells (15 μL/well, 10x final concentration in PBS) using an electronic multichannel pipettes to reach a final volume of 150 μL/well. Cells were incubated for the time of interest (for details of each inhibitors, see Section 4.3 and 4.4) at 37 °C with 5% CO2. Reporter solution 1 or 2 from V-bottom plate was then added (15 μL/well) using an electronic multichannel pipettes to reach a final volume of 165 μL/well and a final concentration of 10 μM 30 min before the next washing process, except for the control wells, where only PBS was added (15 μL/well). The plate was washed again using the plate washer. The solution of Hoechst 33342 and PI from V-bottom plate was added (15 μL/well) using an electronic multichannel pipettes to reach a final volume of 150 μL/well. After […]

[3] = GI50, concentration causing 50% cell growth inhibition
[4] = 0.5 h, tpre 0.5 h with inhibitor
[5] = 0.25 h, tpre 0.25 h with inhibitor

Row | Structure (SMILES) | GI50 ([1]; tpre 1 h with inhibitor) [µM] | Inhibition of uptake of reporter 1, in words [2] | minimal effective concentration ([2]; 1 h, tpre 1 h with inhibitor) [µM] | IC50 ([2]; tpre 1 h with inhibitor) [µM] | GI50 at 1 h [1, 3] [mM] | GI50 at 2 h [1, 3] [mM] | minimal effective concentration ([2]; 2 h, tpre 2 h with inhibitor) [µM] | IC50 ([2]; tpre 2 h with inhibitor) [µM] | GI50 ([1]; tpre 0.5 h with inhibitor) [µM] | GI50 ([1]; tpre 2 h with inhibitor) [µM] | IC50 [2, 4] [µM] | minimal effective concentration [2, 4] [µM] | MIC (concentration that causes ∼15% reduction of reporter uptake), against reporter 1 [2] | GI50 at 4 h [1, 3] [mM] | minimal effective concentration ([2]; 4 h, tpre 4 h with inhibitor) [µM] | IC50 ([2]; tpre 4 h with inhibitor) [µM] | GI50 ([1]; tpre 0.25 h with inhibitor) [µM] | minimal effective concentration [2, 5] [µM] | IC50 ([2]; tpre 0.25 h with inhibitor) [µM] | GI50 ([1]; tpre 4 h with inhibitor) [µM]
1 | CNC(=O)[C@H](CS[S+]([O-])C[C@H](NC(=O)OC(C)(C)C)C(=O)NC)NC(=O)OC(C)(C)C (some centres unmarked) [compound 26] | > 1000 | disappointing | > 1000 | > 1000 | – | – | – | – | – | – | – | – | – | – | – | – | – | – | – | –
2 | C=CCS[S+]([O-])CC=C (centres unmarked) [compound 25, allicin, reference compound] | – | disappointing | > 500 | > 500 | > 0.5 | > 0.5 | > 500 | > 500 | – | – | – | – | – | – | – | – | – | – | – | –
3 | CCN1C(=O)C2SSC1C(=O)N2CC(=O)NCC[N+](C)(C)C (centres unmarked) [compound 12] | > 100 | – | 30 | > 100 | – | – | 30 | > 100 | > 100 | > 100 | > 100 | 30 | ≈ 30 μM | – | – | – | – | – | – | –
4 | O=C(O)CCCCC1CCSS1 (centres unmarked) [compound 30] | – | – | > 2000 | > 2000 | > 2 | > 2 | > 2000 | > 2000 | – | – | – | – | – | > 2 | > 2000 | > 2000 | – | – | – | –
5 | CS(=O)(=O)c1nc2ccccc2s1 [compound 21] | > 500 | – | 300 | > 500 | – | – | – | – | > 500 | – | > 500 | 100 | ≈ 300 μM | – | – | – | > 500 | 300 | > 500 | –
6 | O=C(O)CNC(=O)c1ccc2c(c1)S[S+]([O-])S2 (centres unmarked) [compound 24] | > 20 | – | > 20 | > 20 | – | – | > 20 | > 20 | > 20 | > 20 | > 20 | > 20 | – | – | – | – | – | – | – | –
7 | O[C@@H]1CSSC[C@@H]1O [compound 29] | > 2000 | – | > 2000 | > 2000 | – | – | > 2000 | > 2000 | – | > 2000 | – | – | – | – | > 2000 | > 2000 | – | – | – | > 2000
8 | O=C(O)CN1C(=O)C2SSC1C(=O)N2CCOc1ccccc1 (centres unmarked) [compound 5] | 7 ± 0.6 | – | 0.1 | 0.86 ± 0.06 | – | – | 0.1 | 0.98 ± 0.07 | 10.3 ± 0.4 | ~4.7 | 1.1 ± 0.05 | 0.1 | – | – | 0.1 | 1.42 ± 0.26 | – | – | – | ~4.1
9 | COCCOCCOCCNC(=O)c1ccc2c(c1)SSSSS2 [compound 10] | ~10 | – | 7 | 10.1 ± 0.1 | – | – | 3.5 | > 5 | ~18 | ~7 | 10.4 ± 0.3 | 6.5 | – | – | – | – | – | – | – | –
10 | O=C(CN1C(=O)C2SSC1C(=O)N2CCOc1ccccc1)NCCS(=O)(=O)O (centres unmarked) [compound 8] | > 100 | – | 2 | > 100 | – | – | 6 | > 100 | > 100 | > 100 | > 100 | 10 | – | – | – | – | – | – | – | –
11 | CS(=O)(=O)c1nc2ccccc2o1 [compound 11] | 97 ± 8 | – | 8 | 38.9 ± 4.2 | – | – | – | – | 138 ± 42 | – | 43.3 ± 3.9 | 15 | ≈ 15 μM | – | – | – | > 200 | 18 | 84 ± 8.2 | –
12 | O=C(O)C1CSSC1 [compound 28] | > 2000 | – | > 2000 | > 2000 | – | – | > 2000 | > 2000 | – | > 2000 | – | – | – | – | > 2000 | > 2000 | – | – | – | > 2000
